Like-named read-outs stand apart in the source and are kept apart here.
Assays:
[1] = biological target: T1, MAGL (Homo sapiens, UniProt Q99685); assay: In vitro competitive activity-based protein profiling (gel-based, FP-Rh or HT-01 probe); type: biochemical
T1 construct: Proteomes (human prefrontal cortex or cell membrane fractions); from tissue
T1 sequence (Q99685 1-303): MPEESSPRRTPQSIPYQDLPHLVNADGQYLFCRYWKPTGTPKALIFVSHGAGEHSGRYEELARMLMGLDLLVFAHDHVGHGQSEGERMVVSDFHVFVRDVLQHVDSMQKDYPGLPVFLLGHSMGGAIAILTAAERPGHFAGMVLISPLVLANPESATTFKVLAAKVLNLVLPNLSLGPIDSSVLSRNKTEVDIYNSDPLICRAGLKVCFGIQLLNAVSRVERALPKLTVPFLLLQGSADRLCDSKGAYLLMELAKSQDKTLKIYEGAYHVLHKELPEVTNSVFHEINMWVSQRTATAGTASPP
Procedure: (§1) Compounds are tested to assess their MAGL and serine hydrolase activity using the following in vitro and in vivo assays.
(§2) Proteomes (human prefrontal cortex or cell membrane fractions) (50 μL, 1.0 mg/mL total protein concentration) were preincubated with varying concentrations of inhibitors at 37° C. After 30 min, FP—Rh or HT-01 (1.0 μL, 50 μM in DMSO) was added and the mixture was incubated for another 30 min at room temperature. Reactions were quenched with SDS loading buffer (15 μL-4×) and run on SDS-PAGE.

[2] = biological target: T2, MAGL (Mus musculus, UniProt O35678); assay: Mouse brain proteomes from inhibitor treated mice (oral gavage, brain proteomes analyzed 4 h after administration); type: in vivo, mouse (C57Bl/6J); details: brain proteome 4 h after administration, read-out: % Inh 5 mg/kg MGLL (Mouse)
T2 construct: from tissue; host or cells: brain of wild-type C57Bl/6J mice
T2 sequence (O35678 1-303): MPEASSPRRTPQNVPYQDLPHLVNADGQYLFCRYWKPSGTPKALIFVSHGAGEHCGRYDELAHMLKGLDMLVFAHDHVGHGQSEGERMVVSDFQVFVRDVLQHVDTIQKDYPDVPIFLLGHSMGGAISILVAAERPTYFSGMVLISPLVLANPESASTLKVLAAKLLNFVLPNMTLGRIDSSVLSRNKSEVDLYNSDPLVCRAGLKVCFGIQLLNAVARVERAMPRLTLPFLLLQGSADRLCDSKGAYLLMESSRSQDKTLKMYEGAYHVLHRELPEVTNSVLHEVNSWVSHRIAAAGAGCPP
Procedure: as §1
Preparation of Mouse Brain Proteomes from Inhibitor Treated Mice.
Inhibitors were administered to wild-type C57Bl/6J by oral gavage in a vehicle of polyethylene glycol. Each animal was sacrificed 4 h following administration and brain proteomes were prepared and analyzed according to previously established methods (See Niphakis, M. J., et al. (2011) ACS Chem. Neurosci. and Long, J. Z., et al. Nat. Chem. Biol. 5:37-44).

[3] = biological target: T3, ABHD6 (Mus musculus, UniProt Q8R2Y0); assay: In vitro competitive activity-based protein profiling, mouse brain proteome, ABHD6; type: biochemical; details: for % Inh ABHD6 Brain (Mouse, μM): mouse brain proteome; for IC50: mouse
T3 construct: Brain; from tissue; host or cells: mouse brain proteome
T3 sequence (Q8R2Y0 1-336): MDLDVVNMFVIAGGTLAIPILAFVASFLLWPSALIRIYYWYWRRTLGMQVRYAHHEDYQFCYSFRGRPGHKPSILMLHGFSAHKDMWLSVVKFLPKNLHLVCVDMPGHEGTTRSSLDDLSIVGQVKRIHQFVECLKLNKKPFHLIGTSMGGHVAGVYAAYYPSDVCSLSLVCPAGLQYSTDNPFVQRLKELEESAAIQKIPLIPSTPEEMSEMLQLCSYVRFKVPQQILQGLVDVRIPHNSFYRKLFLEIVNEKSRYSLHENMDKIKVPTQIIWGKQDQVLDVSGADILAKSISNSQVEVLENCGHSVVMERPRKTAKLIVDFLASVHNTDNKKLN
Procedure: [Worded in the source for another target; this target is reported under the same test.] as §2

[4] = biological target: T4, MGLL (Mus musculus, UniProt O35678); assay: In vitro competitive activity-based protein profiling, mouse brain proteome; type: biochemical
T4 construct: Brain; from tissue; host or cells: mouse brain proteome
T4 sequence (O35678 1-303): T2 sequence (O35678 1-303)
Procedure: [Worded in the source for another species; this species is reported under the same test.] as §2

[5] = PC3 proteome, read-out: IC50 MGLL PC3 (Human)
[6] = PFC (prefrontal cortex) proteome
[7] = PFC (prefrontal cortex) proteome, read-out: IC50 MGLL PFC (Human)

## CN(Cc1ccccc1C1(C(=O)O)CCCC1)C1(C)CCN(C(=O)OC(C(F)(F)F)C(F)(F)F)CC1 [Example 141]
[1]; [5]
  IC50: < 100 nM
[1]; [6]
  % Inh MGLL PFC (Human, μM): ### (### is ≥ 75%)
[2]
  inhibition at 5 mg/kg: ≥ 75%

## O=C(O)[C@@H]1CCCN1C1CCN(c2cc(C(F)(F)F)ccc2CN2CCCC23CCN(C(=O)OC(C(F)(F)F)C(F)(F)F)CC3)CC1 [Example 164, (1-(2-((8-(((1,1,1,3,3,3-Hexafluoropropan-2-yl)oxy)carbonyl)-1,8-diazaspiro[4.5]decan-1-yl)methyl)-5-(trifluoromethyl)phenyl)piperidin-4-yl)-L-proline]
[3]
  % Inh ABHD6 Brain (Mouse, μM): # (# is ≤ 25%)
[4]
  % Inh MGLL Brain (Mouse, μM): ### (### is ≥ 75%)
[1]; PC3 proteome
  % Inh MGLL PC3 (Human, μM): ### (### is ≥ 75%)

## O=C(O)CN1CCC2(CC1)CN(c1cc(C(F)(F)F)ccc1CN1CCCC13CCN(C(=O)OC(C(F)(F)F)C(F)(F)F)CC3)C2 [Example 156, 2-(2-(2-((8-(((1,1,1,3,3,3-Hexafluoropropan-2-yl)oxy)carbonyl)-1,8-diazaspiro[4.5]decan-1-yl)methyl)-5-(trifluoromethyl)phenyl)-2,7-diazaspiro[3.5]nonan-7-yl)acetic acid]
[1]; [5]
  IC50: < 100 nM
[2]
  inhibition at 5 mg/kg: ≤ 25%

## O=C(O)CN1CC2CC1CN2c1cc(CN2CCC3(CCN(C(=O)OC(C(F)(F)F)C(F)(F)F)CC3)C2)cc(C(F)(F)F)c1 (centres unmarked) [Example 125, 2-(5-{3-[(8-{[(1,1,1,3,3,3-Hexafluoropropan-2-yl)oxy]carbonyl}-2,8-diazaspiro[4.5]decan-2-yl)methyl]-5-(trifluoromethyl)phenyl}-2,5-diazabicyclo[2.2.1]heptan-2-yl)acetic acid]
[1]; [5]
  IC50: < 100 nM
[2]
  inhibition at 5 mg/kg: ≤ 25%

## CC1(C(=O)O)CCCN(c2cc(CN3CC4(CCN(C(=O)OC(C(F)(F)F)C(F)(F)F)CC4)C3)cc(C(F)(F)F)c2)C1 (centres unmarked) [Example 114, 1-(3-((7-(((1,1,1,3,3,3-Hexafluoropropan-2-yl)oxy)carbonyl)-2,7-diazaspiro[3.5]nonan-2-yl)methyl)-5-(trifluoromethyl)phenyl)-3-methylpiperidine-3-carboxylic acid]
[1]; [5]
  IC50: < 100 nM
[1]; [7]
  IC50: < 100 nM
[2]
  inhibition at 5 mg/kg: 25 to 75%

## O=C(OC(C(F)(F)F)C(F)(F)F)N1CCC2(CCCN2Cc2ccc(C(F)(F)F)cc2C2(C(=O)O)CCCC2)CC1 [Example 7, 1-(2-((8-(((1,1,1,3,3,3-hexafluoropropan-2-yl)oxy)carbonyl)-1,8-diazaspiro[4.5]decan-1-yl)methyl)-5-(trifluoromethyl)phenyl)cyclopentane-1-carboxylic acid]
[1]; [5]
  IC50: < 100 nM
[2]
  inhibition at 5 mg/kg: ≥ 75%

## CN(Cc1cc(N2CCOC(C)(C(=O)O)C2)cc(C(F)(F)F)c1)C1(C)CCN(C(=O)OC(C(F)(F)F)C(F)(F)F)CC1 (centres unmarked) [Example 139]
[1]; [5]
  IC50: < 100 nM
[1]; [7]
  IC50: < 100 nM
[2]
  inhibition at 5 mg/kg: ≤ 25%

## O=C(OC(C(F)(F)F)C(F)(F)F)N1CCC2(CCCN2Cc2cc(Cl)cc(C3(C(=O)O)CCCC3)c2)CC1 [Example 134, 1-{3-Chloro-5-[(8-{[(1,1,1,3,3,3-hexafluoropropan-2-yl)oxy]carbonyl}-1,8-diazaspiro[4.5]decan-1-yl)methyl]phenyl} cyclopentane-1-carboxylic acid]
[1]; [5]
  IC50: < 100 nM
[1]; [6]
  % Inh MGLL PFC (Human, μM): ### (### is ≥ 75%)
[2]
  inhibition at 5 mg/kg: ≥ 75%

## CC1(C(=O)O)CCCN(c2cc(C(F)(F)F)ccc2CN2CC3(CCN(C(=O)OC(C(F)(F)F)C(F)(F)F)CC3)C2)C1 (centres unmarked) [Example 112, 1-(2-((7-(((1,1,1,3,3,3-Hexafluoropropan-2-yl)oxy)carbonyl)-2,7-diazaspiro[3.5]nonan-2-yl)methyl)-5-(trifluoromethyl)phenyl)-3-methylpiperidine-3-carboxylic acid]
[1]; [5]
  IC50: < 100 nM
[2]
  inhibition at 5 mg/kg: ≤ 25%

## O=C(O)CN1CC2(CCN(c3cc(CN4CCCC45CCN(C(=O)OC(C(F)(F)F)C(F)(F)F)CC5)cc(C(F)(F)F)c3)CC2)C1 [Example 158, 2-(7-(3-((8-(((1,1,1,3,3,3-Hexafluoropropan-2-yl)oxy)carbonyl)-1,8-diazaspiro[4.5]decan-1-yl)methyl)-5-(trifluoromethyl)phenyl)-2,7-diazaspiro[3.5]nonan-2-yl)acetic acid]
[1]; [5]
  IC50: < 100 nM
[2]
  inhibition at 5 mg/kg: ≤ 25%

## O=C(O)CN1CC2CC1CN2c1cc(CN2CCCC23CCN(C(=O)OC(C(F)(F)F)C(F)(F)F)CC3)cc(C(F)(F)F)c1 (centres unmarked) [Example 128, 2-(5-{3-[(8-{[(1,1,1,3,3,3-Hexafluoropropan-2-yl)oxy]carbonyl}-1,8-diazaspiro[4.5]decan-1-yl)methyl]-5-(trifluoromethyl)phenyl}-2,5-diazabicyclo[2.2.1]heptan-2-yl)acetic acid]
[1]; [5]
  IC50: < 100 nM
[2]
  inhibition at 5 mg/kg: ≤ 25%

## O=C(O)CN1CC2CC1CN2c1cc(CN2CC3(CCN(C(=O)OC(C(F)(F)F)C(F)(F)F)CC3)C2)cc(C(F)(F)F)c1 (centres unmarked) [Example 129, 2-(5-{3-[(7-{[(1,1,1,3,3,3-Hexafluoropropan-2-yl)oxy]carbonyl}-2,7-diazaspiro[3.5]nonan-2-yl)methyl]-5-(trifluoromethyl)phenyl}-2,5-diazabicyclo[2.2.1]heptan-2-yl)acetic acid]
[2]
  inhibition at 5 mg/kg: ≤ 25%

## O=C(O)C1CCN(c2cc(Cl)ccc2CN2CCC3(CC2)CCN(C(=O)OC(C(F)(F)F)C(F)(F)F)C3)CC1 [Example 194, 1-(5-Chloro-2-((2-(((1,1,1,3,3,3-hexafluoropropan-2-yl)oxy)carbonyl)-2,8-diazaspiro[4.5]decan-8-yl)methyl)phenyl) piperidine-4-carboxylic acid]
[3]
  IC50: > 1000 nM
[4]
  IC50: 100 to 1000 nM
[1]; [5]
  IC50: < 100 nM
[1]; [7]
  IC50: < 100 nM

## O=C(O)C1CCN(c2cc(C(F)(F)F)ccc2CN2CCC3(CC2)CCN(C(=O)OC(C(F)(F)F)C(F)(F)F)C3)CC1 [Example 195, 1-(2-((2-(((1,1,1,3,3,3-Hexafluoropropan-2-yl)oxy)carbonyl)-2,8-diazaspiro[4.5]decan-8-yl)methyl)-5-(trifluoromethyl)phenyl)piperidine-4-carboxylic acid]
[3]
  IC50: > 1000 nM
[4]
  IC50: 100 to 1000 nM
[1]; [5]
  IC50: < 100 nM
[1]; [7]
  IC50: 100 to 1000 nM

## O=C(O)CN1CC2CC1CN2c1cc(C(F)(F)F)ccc1CN1CCCC12CCN(C(=O)OC(C(F)(F)F)C(F)(F)F)CC2 (centres unmarked) [Example 6, 2-(5-(2-((8-(((1,1,1,3,3,3-hexafluoropropan-2-yl)oxy)carbonyl)-1,8-diazaspiro[4.5]decan-1-yl)methyl)-5-(trifluoromethyl)phenyl)-2,5-diazabicyclo[2.2.1]heptan-2-yl)acetic acid]
[3]
  % Inh ABHD6 Brain (Mouse, μM): # (# is ≤ 25%)
[4]
  % Inh MGLL Brain (Mouse, μM): ### (### is ≥ 75%)
[1]; [5]
  IC50: < 100 nM
[1]; [6]
  % Inh MGLL PFC (Human, μM): ### (### is ≥ 75%)
[1]; [7]
  IC50: < 100 nM

## CN(Cc1cc(N2CCCC2)cc(C(F)(F)F)c1)C1(C)CCN(C(=O)OC(C(F)(F)F)C(F)(F)F)CC1 [Example 76, 1,1,1,3,3,3-Hexafluoropropan-2-yl 4-methyl-4-(methyl(3-(pyrrolidin-1-yl)-5-(trifluoromethyl)benzyl)amino) piperidine-1-carboxylate]
[3]
  IC50: > 1000 nM
[4]
  IC50: 100 to 1000 nM
[1]; [7]
  IC50: < 100 nM

Source: US20210214375A1 (LUNDBECK LA JOLLA RESEARCH CENTER, INC., priority 2017, published 2021)
